The target in experiment [1] is Serine/threonine-protein kinase MRCK alpha (Homo sapiens, UniProt Q5VT25).
The target of experiment [2] is Tyrosine-protein kinase Fyn (Homo sapiens, UniProt P06241).
Another experiment addresses GTP-binding protein 4 (Homo sapiens, UniProt Q9BZE4).
Experiment [3] concerns the target T1, Interleukin-1 receptor-associated kinase 3 (Homo sapiens, UniProt Q9Y616).
T1 sequence (Q9Y616 whole entry): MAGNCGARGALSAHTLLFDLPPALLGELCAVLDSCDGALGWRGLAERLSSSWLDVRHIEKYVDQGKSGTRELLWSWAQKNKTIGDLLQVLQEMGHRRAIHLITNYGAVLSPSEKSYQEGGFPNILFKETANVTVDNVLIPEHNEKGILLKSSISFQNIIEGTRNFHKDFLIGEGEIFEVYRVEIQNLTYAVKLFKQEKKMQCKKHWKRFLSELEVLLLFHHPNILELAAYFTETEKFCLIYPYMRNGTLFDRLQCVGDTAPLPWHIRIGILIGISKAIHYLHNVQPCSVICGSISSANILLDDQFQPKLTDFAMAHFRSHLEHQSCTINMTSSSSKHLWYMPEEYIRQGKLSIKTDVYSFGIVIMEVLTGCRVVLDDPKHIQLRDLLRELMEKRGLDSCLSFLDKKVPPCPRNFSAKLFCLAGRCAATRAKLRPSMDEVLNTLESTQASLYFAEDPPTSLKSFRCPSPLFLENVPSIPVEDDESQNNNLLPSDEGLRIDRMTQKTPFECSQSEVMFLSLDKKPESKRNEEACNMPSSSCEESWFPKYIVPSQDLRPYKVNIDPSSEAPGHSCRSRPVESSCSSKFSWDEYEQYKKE

The target of experiment [4] is T2, Interleukin-1 receptor-associated kinase 4 (Homo sapiens, UniProt Q9NWZ3).
T2 sequence (Q9NWZ3 whole entry): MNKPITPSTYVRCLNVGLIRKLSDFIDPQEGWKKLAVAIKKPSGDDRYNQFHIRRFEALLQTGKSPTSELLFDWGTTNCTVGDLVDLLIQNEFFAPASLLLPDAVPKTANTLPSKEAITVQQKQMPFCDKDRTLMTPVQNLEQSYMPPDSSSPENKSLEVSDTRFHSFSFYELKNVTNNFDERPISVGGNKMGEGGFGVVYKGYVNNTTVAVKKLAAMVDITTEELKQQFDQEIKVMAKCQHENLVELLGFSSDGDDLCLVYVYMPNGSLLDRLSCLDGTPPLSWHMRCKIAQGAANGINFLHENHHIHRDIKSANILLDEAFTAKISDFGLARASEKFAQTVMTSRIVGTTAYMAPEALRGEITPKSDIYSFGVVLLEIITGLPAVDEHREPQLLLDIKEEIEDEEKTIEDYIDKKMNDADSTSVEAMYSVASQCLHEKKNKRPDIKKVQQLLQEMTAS

The target of experiment [5] is Mitogen-activated protein kinase 1 (Homo sapiens, UniProt P28482).
Experiment [6] concerns the target Mitogen-activated protein kinase 14 (Homo sapiens, UniProt Q16539).
For experiment [7], the target named is Mitogen-activated protein kinase 9 (Homo sapiens, UniProt P45984).
The target of experiment [8] is High affinity nerve growth factor receptor (Homo sapiens, UniProt P04629).
Experiment [9] deals with Serine/threonine-protein kinase SIK3 (Homo sapiens, UniProt Q9Y2K2).
The target of the next experiment is T3, TGF-beta receptor type-1 (Homo sapiens, UniProt P36897).
T3 sequence (P36897 whole entry): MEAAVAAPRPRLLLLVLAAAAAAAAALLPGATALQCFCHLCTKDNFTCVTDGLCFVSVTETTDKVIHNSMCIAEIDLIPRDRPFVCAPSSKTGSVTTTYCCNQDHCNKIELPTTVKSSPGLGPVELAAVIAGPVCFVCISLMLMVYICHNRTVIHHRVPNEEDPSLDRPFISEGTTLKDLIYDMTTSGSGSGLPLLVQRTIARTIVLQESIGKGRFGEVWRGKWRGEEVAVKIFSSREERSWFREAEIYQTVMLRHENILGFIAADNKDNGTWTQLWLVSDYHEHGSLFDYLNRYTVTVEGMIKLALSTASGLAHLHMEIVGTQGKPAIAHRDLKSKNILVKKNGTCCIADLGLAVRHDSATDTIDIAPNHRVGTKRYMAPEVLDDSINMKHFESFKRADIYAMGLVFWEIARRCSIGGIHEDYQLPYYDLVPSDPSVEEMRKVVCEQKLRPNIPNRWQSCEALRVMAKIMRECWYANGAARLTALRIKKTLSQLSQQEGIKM

Kd data for 12 molecules are collected here from ChEMBL document CHEMBL3991601, “The target landscape of clinical kinase drugs” (Science, 2017).

By Kd is commonly meant the equilibrium constant for the complex coming apart.

The source made the active and inactive calls. Cut-off read from the data, not from the text of the source, for most assays here: actives have a measured Kd and inactives only a lower limit.
Note: in the data inactive means no Kd found up to 30 µM.

Chain of Serine/threonine-protein kinase MRCK alpha (Q5VT25 whole entry): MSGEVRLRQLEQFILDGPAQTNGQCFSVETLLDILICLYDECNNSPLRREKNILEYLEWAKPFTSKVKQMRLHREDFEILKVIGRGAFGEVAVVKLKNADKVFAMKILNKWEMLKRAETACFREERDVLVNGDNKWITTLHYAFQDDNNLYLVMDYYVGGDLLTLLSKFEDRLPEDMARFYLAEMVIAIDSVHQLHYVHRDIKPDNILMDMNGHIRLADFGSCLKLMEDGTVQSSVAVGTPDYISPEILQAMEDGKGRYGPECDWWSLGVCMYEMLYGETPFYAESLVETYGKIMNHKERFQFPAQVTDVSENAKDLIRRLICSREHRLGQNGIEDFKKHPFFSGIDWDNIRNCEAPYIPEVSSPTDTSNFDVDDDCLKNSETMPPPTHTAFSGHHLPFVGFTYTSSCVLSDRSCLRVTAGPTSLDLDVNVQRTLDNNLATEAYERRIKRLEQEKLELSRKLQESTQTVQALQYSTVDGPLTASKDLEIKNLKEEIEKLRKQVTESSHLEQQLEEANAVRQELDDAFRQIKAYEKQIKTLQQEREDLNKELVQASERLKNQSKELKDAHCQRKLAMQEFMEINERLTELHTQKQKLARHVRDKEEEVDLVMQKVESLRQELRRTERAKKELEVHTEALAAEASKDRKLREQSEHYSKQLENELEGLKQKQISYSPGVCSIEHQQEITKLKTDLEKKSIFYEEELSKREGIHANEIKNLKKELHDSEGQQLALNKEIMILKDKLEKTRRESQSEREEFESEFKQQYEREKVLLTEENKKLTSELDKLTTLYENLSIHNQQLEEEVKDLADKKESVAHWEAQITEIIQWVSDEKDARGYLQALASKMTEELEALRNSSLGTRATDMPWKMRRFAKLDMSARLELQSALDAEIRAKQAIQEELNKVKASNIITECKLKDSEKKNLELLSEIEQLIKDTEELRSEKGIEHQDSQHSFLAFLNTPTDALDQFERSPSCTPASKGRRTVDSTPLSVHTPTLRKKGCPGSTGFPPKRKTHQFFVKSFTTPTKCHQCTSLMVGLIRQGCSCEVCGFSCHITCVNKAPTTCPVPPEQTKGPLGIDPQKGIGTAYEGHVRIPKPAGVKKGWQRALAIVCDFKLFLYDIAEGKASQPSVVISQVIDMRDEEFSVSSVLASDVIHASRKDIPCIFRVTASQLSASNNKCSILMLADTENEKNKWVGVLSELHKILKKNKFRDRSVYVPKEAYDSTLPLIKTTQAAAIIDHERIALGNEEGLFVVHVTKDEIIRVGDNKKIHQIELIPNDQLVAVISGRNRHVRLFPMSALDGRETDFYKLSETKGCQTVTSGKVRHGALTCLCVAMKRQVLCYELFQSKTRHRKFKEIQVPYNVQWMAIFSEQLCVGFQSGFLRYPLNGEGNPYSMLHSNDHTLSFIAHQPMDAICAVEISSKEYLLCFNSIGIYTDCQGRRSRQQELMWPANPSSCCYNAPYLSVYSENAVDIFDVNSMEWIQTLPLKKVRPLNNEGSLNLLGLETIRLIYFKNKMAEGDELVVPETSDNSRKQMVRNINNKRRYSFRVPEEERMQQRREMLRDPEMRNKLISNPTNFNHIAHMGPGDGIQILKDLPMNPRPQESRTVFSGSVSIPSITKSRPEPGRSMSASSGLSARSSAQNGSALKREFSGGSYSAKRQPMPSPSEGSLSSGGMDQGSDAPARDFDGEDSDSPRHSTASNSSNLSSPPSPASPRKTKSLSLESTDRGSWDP
Chain of Mitogen-activated protein kinase 14 (Q16539 whole entry): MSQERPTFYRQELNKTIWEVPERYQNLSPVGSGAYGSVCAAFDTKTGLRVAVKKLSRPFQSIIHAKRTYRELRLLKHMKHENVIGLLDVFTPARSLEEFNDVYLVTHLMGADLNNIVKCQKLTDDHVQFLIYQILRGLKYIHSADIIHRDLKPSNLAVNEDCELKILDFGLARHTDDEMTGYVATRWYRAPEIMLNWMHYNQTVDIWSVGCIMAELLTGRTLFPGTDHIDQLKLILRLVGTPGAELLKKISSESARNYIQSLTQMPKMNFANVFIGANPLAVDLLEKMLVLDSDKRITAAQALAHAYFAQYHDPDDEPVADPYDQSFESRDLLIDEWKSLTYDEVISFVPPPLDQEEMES
Chain of Serine/threonine-protein kinase SIK3 (Q9Y2K2 whole entry): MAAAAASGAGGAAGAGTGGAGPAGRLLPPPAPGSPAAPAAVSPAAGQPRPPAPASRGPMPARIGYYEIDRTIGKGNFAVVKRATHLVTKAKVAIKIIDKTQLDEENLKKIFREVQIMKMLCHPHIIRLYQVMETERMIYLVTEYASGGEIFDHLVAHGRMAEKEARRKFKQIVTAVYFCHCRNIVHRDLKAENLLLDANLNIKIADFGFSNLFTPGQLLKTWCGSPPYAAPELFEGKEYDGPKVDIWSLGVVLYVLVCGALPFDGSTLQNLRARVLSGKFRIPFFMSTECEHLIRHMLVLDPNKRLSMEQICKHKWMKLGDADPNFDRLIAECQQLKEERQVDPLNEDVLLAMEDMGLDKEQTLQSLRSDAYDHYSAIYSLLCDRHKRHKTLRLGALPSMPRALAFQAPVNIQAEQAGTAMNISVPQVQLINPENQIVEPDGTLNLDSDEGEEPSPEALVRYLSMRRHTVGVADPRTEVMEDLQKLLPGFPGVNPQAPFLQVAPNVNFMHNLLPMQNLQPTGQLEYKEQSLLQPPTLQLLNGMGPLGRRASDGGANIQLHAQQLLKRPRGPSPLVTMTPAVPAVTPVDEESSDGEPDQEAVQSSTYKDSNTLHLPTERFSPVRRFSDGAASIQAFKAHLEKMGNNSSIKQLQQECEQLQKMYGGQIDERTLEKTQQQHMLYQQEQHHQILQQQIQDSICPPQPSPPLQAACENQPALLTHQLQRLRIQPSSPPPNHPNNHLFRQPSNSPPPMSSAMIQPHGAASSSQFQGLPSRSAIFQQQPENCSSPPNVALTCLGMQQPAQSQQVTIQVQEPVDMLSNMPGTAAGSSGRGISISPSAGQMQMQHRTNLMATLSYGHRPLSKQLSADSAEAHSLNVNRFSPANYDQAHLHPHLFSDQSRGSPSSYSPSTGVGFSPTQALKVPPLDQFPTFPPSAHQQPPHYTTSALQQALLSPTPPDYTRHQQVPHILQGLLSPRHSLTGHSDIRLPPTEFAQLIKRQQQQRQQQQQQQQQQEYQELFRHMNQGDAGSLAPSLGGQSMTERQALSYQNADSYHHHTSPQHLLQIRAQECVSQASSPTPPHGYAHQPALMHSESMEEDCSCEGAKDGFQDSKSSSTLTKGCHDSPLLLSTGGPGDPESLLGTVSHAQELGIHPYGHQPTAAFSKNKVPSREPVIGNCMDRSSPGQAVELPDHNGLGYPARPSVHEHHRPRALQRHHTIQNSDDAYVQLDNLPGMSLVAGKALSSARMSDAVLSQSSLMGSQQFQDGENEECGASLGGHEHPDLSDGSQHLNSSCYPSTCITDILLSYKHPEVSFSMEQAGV
Chain of Tyrosine-protein kinase Fyn (P06241 whole entry): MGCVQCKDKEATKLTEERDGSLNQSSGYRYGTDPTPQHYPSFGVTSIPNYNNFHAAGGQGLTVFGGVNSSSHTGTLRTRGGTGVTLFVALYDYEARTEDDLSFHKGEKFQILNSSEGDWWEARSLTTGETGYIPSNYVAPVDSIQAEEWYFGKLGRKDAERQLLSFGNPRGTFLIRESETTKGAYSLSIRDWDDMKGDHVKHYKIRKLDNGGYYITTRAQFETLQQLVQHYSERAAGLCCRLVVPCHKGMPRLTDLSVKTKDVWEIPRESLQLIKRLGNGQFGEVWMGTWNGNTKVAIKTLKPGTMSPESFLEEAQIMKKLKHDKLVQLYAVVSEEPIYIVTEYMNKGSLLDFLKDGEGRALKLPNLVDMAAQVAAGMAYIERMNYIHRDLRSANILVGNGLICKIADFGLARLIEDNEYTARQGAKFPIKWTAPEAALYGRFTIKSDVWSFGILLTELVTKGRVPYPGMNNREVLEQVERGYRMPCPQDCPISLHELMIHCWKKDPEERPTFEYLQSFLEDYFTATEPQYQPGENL
Chain of High affinity nerve growth factor receptor (P04629 whole entry): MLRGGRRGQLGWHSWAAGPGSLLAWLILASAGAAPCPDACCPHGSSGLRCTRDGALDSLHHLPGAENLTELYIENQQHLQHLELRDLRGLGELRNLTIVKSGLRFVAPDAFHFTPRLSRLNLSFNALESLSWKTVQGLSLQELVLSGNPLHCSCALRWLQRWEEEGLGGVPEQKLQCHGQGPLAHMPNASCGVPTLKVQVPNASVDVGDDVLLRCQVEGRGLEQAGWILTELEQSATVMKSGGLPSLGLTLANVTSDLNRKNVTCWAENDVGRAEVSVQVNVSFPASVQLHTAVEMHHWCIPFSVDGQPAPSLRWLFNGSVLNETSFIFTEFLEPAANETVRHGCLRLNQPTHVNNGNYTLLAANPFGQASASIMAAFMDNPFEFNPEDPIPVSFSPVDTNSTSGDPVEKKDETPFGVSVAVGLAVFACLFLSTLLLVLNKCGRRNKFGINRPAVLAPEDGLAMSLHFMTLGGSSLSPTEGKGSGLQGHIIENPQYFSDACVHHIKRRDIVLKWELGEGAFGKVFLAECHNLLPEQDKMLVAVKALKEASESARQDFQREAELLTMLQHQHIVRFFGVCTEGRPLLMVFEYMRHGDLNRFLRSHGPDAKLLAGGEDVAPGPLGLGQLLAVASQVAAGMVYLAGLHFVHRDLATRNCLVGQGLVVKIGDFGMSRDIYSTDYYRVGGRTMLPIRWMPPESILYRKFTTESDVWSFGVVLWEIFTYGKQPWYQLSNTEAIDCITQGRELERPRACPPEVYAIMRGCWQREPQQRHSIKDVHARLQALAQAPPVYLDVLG

Consider `C[C@@H](Oc1cc(C(=O)Nc2ccc(C(=O)N3CCN(C)CC3)cc2)nnc1N)c1c(Cl)ccc(F)c1Cl`, for which the Kd (in experiment [1]; in experiment [2]; at GTP-binding protein 4; in experiment [3]; in [4]; in experiment [5]) was > 30 µM (inactive) throughout. Further, the Kd (in experiment [6]; in [7]; in experiment [8]; in experiment [9]; at TGF-beta receptor type-1) was > 30 µM (inactive) throughout.

As for `Cc1nc2cc(-c3nn(C(C)C)c4ncnc(N)c34)ccc2o1`, the Kd (in experiment [1]; in experiment [2]; at GTP-binding protein 4; in [3]; in experiment [4]; in [5]) was > 30 µM (inactive) in each case. The Kd in experiment [6] is > 30 µM (inactive); in experiment [7], > 30 µM (inactive); in experiment [8] it was > 30 µM (inactive); in [9], > 30 µM (inactive); at TGF-beta receptor type-1 it was 2.47 µM (active).

As to `Cc1csc(-c2nnc(Nc3ccc(Oc4ncccc4-c4ccnc(N)n4)cc3)c3ccccc23)c1` [AMG-900], the Kd (in [1]; in experiment [2]; on GTP-binding protein 4; in experiment [3]; in experiment [4]; in experiment [5]) was > 30 µM (inactive) each time. The Kd was 0.735 µM (active) in experiment [6]; > 30 µM (inactive) in experiment [7]; > 30 µM (inactive) in experiment [8]; > 30 µM (inactive) in experiment [9]; > 30 µM (inactive) at TGF-beta receptor type-1.

For `C=CC(=O)Nc1cc2c(Nc3ccc(F)c(Cl)c3)ncnc2cc1C#CC(C)(C)N1CCN(C)CC1` [AV-412 FREE BASE], the Kd (in experiment [1]; in [2]; on GTP-binding protein 4; in [3]; in experiment [4]; in experiment [5]) was > 30 µM (inactive) each time. For the same molecule, the Kd (in [6]; in experiment [7]; in [8]; in [9]; on TGF-beta receptor type-1) was > 30 µM (inactive) in each case.

Turning to `COc1cc([C@@H]2c3cc4c(cc3[C@H](O)[C@H]3COC(=O)[C@@H]23)OCO4)cc(OC)c1OC` [AXL-1717], the Kd (in experiment [1]; in experiment [2]; at GTP-binding protein 4; in [3]; in experiment [4]; in experiment [5]) was > 30 µM (inactive) each time. For the same molecule, the Kd (in experiment [6]; in [7]; in [8]; in experiment [9]; on TGF-beta receptor type-1) was > 30 µM (inactive) each time.

With `Cc1cc(C(=O)NOCCO)c(Nc2ccc(I)cc2F)n(C)c1=O` [AZD-8330], the Kd (in [1]; in [2]; on GTP-binding protein 4; in experiment [3]; in [4]; in [5]) was > 30 µM (inactive) throughout. The Kd (in experiment [6]; in experiment [7]; in [8]; in experiment [9]; at TGF-beta receptor type-1) was > 30 µM (inactive) throughout.

Take `Cn1cnc2c(F)c(Nc3ccc(Br)cc3F)c(C(=O)NOCCO)cc21` [BINIMETINIB]: the Kd (in experiment [1]; in experiment [2]; at GTP-binding protein 4; in experiment [3]; in experiment [4]; in [5]) was > 30 µM (inactive) in each case. In addition, the Kd (in experiment [6]; in experiment [7]; in [8]; in [9]; at TGF-beta receptor type-1) was > 30 µM (inactive) throughout.

Regarding `COc1cc2ncnc(Oc3cccc(NC(=O)Nc4cc(C(C)(C)C(F)(F)F)on4)c3)c2cc1OC` [CEP-32496], the Kd (in [1]; in [2]; on GTP-binding protein 4; in [3]; in [4]; in experiment [5]) was > 30 µM (inactive) each time. Besides, the Kd in experiment [6] is 0.566 µM (active); in experiment [7], 0.148 µM (active); in experiment [8] it was > 30 µM (inactive); in experiment [9], > 30 µM (inactive); at TGF-beta receptor type-1, > 30 µM (inactive).

With `Cc1cc(Nc2ncc(Cl)c(Nc3ccccc3S(=O)(=O)C(C)C)n2)c(OC(C)C)cc1C1CCNCC1` [CERITINIB], the Kd (in [1]; in experiment [2]; on GTP-binding protein 4; in experiment [3]; in experiment [4]; in experiment [5]) was > 30 µM (inactive) throughout. Besides, the Kd (in experiment [6]; in [7]; in experiment [8]; in experiment [9]; on TGF-beta receptor type-1) was > 30 µM (inactive) each time.

Regarding `COc1c(OCCCN2CCOCC2)ccc2c1N=C(NC(=O)c1cnc(N)nc1)N1CCN=C21` [COPANLISIB], the Kd (in experiment [1]; in experiment [2]; at GTP-binding protein 4; in experiment [3]; in experiment [4]; in [5]) was > 30 µM (inactive) throughout. Further, the Kd (in experiment [6]; in experiment [7]; in [8]; in [9]; on TGF-beta receptor type-1) was > 30 µM (inactive) each time.

Consider `COCC(=O)NC/C=C/c1ccc2ncnc(Nc3ccc(Oc4ccc(C)nc4)c(C)c3)c2c1` [CP-724714], for which the Kd (in [1]; in [2]; on GTP-binding protein 4; in [3]; in experiment [4]; in experiment [5]) was > 30 µM (inactive) each time. Also, the Kd (in [6]; in [7]; in experiment [8]; in experiment [9]; on TGF-beta receptor type-1) was > 30 µM (inactive) throughout.

Turning to `C#Cc1cccc(Nc2ncnc3cc(OC)c(OCCCCCCC(=O)NO)cc23)c1` [CUDC-101], the Kd (in experiment [1]; in experiment [2]; at GTP-binding protein 4; in [3]; in experiment [4]; in experiment [5]) was > 30 µM (inactive) throughout. For the same molecule, the Kd (in [6]; in experiment [7]; in [8]; in experiment [9]; on TGF-beta receptor type-1) was > 30 µM (inactive) throughout.
